Measured values taken from US7153535B2, “Protein sweetener” (Wisconsin Alumni Research Foundation, priority 2002, dated 2006).

Key:
[1] = tested on: taste fibers predominantly responsive to sweeteners (S fibers) in the Chorda Tympani (CT) nerves; test: taste nerve fiber recordings during stimulation of the tongue; assay type: in vivo; conditions: fiber nerve recordings from rhesus monkey Chorda Tympani nerves, FIG. 4
Procedure: (§1) To test the sweetness potency of SEQ ID NOS. 3 and 5, we tested the perception of sweetness using a concentration of 100 ug/ml of the protein in water. One test panel consisted of monkeys. The other test panel was of humans. The response measured in the monkeys was level of activity of taste nerve fibers during the stimulation of the tongue with different compounds being tested. Humans were requested to score the sweetness sensations of the stimuli with a magnitude labeled scale in accordance with the techniques of B. Green et al., 21 Chemical Senses 323 (1996) (e.g. barely detectable; weak; moderate; strong; very strong; strongest imaginable).
We used rhesus monkey nerves as an animal model to test primate taste responses to sweet proteins. […] The triangle markings on FIG. 4 indicate exposure timing.

[2] = level of heat typically present during baking of foods; cited from earlier work
humans = test: human panel sweetness scoring on a labeled magnitude scale; assay type: in vivo; conditions: 100 ug/ml of the protein in water; monkey and human test panels
Procedure: as §1

Substance	nerve response recording profile compared with sucrose [1]	stability to heat [2]	sweetness relative to recombinantly produced wild type (des-pGlul) (humans)
Brazzein: sweet protein; SEQ ID NO: 1 is natural Brazzein minus the beginning Glu, recombinantly produced wild type (DKCKKVYENYPVSKCQLANQCNYDCKLDKHARSGECFYDEKRNLQCICDYCEY; listed as Pentadiplandra brazzeana)	more distinct	stable	
D29K: Brazzein variant in which the Asp at position 29 is replaced with Lys (DKCKKVYENYPVSKCQLANQCNYDCKLKKHARSGECFYDEKRNLQCICDYCEY)			3 to 4 times
D29N: Brazzein variant in which the Asp at position 29 is replaced with Asn (DKCKKVYENYPVSKCQLANQCNYDCKLNKHARSGECFYDEKRNLQCICDYCEY)	remarkably close to that of sucrose		3 to 4 times
Glu36Ala: comparative Brazzein variant with Glu at position 36 replaced by Ala (QDKCKKVYENYPVSKCQLANQCNYDCKLDKHARSGACFYDEKRNLQCICDYCEY; UniProt P56552 1-54, looked up, variant E36A)	more distinct		
